Values after ≈ are worked out from the molar mass of the structure shown.
Tests used:
[1] = target: T1, Phospho-N-acetylmuramoyl-pentapeptide-transferase (Escherichia coli, UniProt E2QF15); assay: Inhibition of MraY in Escherichia coli
T1 sequence (E2QF15 whole entry): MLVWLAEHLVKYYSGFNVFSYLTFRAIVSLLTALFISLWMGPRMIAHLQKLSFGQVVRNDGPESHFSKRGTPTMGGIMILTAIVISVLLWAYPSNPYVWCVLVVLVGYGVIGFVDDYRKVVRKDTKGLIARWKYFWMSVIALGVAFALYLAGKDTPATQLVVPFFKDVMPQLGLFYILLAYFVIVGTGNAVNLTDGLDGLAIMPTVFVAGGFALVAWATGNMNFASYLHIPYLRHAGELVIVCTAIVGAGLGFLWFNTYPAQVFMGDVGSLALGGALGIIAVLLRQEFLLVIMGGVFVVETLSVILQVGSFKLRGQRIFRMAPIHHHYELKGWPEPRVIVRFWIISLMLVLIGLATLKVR

[2] = tested on: Bacillus subtilis; assay: Antibacterial activity against Bacillus subtilis ATCC 6633 assessed as bacterial growth inhibition by agar diffusion method; format: functional
[3] = Toxicity in rat; conditions: in vivo

| Compound | IC50 [1] [µM] | MIC [2] [µg/mL] | LD50 [3] [µg/kg] |
| --- | --- | --- | --- |
| N=CNC[C@H]1O[C@@H](OC[C@H]2O[C@@H](n3ccc(=O)[nH]c3=O)[C@H](O)[C@@H]2O)[C@H](O)[C@@H]1O | 25 | – | – |
| CCCCCCCCCCc1cn(C[C@H](O[C@@H]2O[C@H](CN)[C@@H](O)[C@H]2O)[C@H]2O[C@@H](n3ccc(=O)[nH]c3=O)[C@H](O)[C@@H]2O)nn1 | 8 | – | – |
| CC(=O)N[C@H]1[C@H](O[C@@H]2O[C@H](C[C@@H](C)[C@H]3O[C@@H](n4ccc(=O)[nH]c4=O)[C@H](O)[C@@H]3O)[C@H](O)[C@H](O)[C@H]2NC(=O)/C=C/CCCCCCCCCCCCC(C)C)O[C@@H](CO)[C@H](O)[C@@H]1O | – | 0.1 (≈ 0.115 µM) | 137 |
| CC(=O)N[C@H]1[C@H](O[C@@H]2O[C@H](C[C@@H](C)[C@H]3O[C@@H](n4ccc(=O)[nH]c4=O)[C@H](O)[C@@H]3O)[C@H](O)[C@H](O)[C@H]2NC(=O)CCCCCCCCCCCCCCC(C)C)O[C@@H](CO)[C@H](O)[C@@H]1O | – | 0.1 (≈ 0.115 µM) | 137 |
| CCC(C)CCCCCCCCCCCC/C=C/C(=O)N[C@H]1[C@H](O[C@@H]2O[C@@H](CO)[C@H](O)[C@H](O)[C@H]2NC(C)=O)O[C@H](C[C@@H](C)[C@H]2O[C@@H](n3ccc(=O)[nH]c3=O)[C@H](O)[C@@H]2O)[C@H](O)[C@@H]1O (stereo partly specified) | – | 0.1 (≈ 0.113 µM) | 137 |
| CCC(C)CCCCCCCCCCCCCCC(=O)N[C@H]1[C@H](O[C@@H]2O[C@@H](CO)[C@H](O)[C@H](O)[C@H]2NC(C)=O)O[C@H](C[C@@H](C)[C@H]2O[C@@H](n3ccc(=O)[nH]c3=O)[C@H](O)[C@@H]2O)[C@H](O)[C@@H]1O (stereo partly specified) | – | 0.1 (≈ 0.113 µM) | 137 |
| CC(=O)N[C@H]1[C@H](O[C@@H]2O[C@H](C[C@@H](C)[C@H]3O[C@@H](n4ccc(=O)[nH]c4=O)[C@H](O)[C@@H]3O)[C@H](O)[C@H](O)[C@H]2NC(=O)/C=C/CCCCCCCCCCCC(C)C)O[C@@H](CO)[C@H](O)[C@@H]1O | – | 0.1 (≈ 0.117 µM) | 137 |
| NC[C@H]1O[C@@H](O[C@@H](Cc2cn(Cc3ccc(COc4ccc(C(=O)c5ccccc5)cc4)cc3)nn2)[C@H]2O[C@@H](n3ccc(=O)[nH]c3=O)[C@H](O)[C@@H]2O)[C@H](O)[C@@H]1O | 8 | – | – |
| CO[C@H]1[C@@H](O)[C@H](n2ccc(=O)[nH]c2=O)O[C@@H]1[C@@H](O[C@@H]1OC(C(=O)N[C@H]2CSC[C@@H](C)NC2=O)=C[C@@H](O)[C@H]1O)C(N)=O | 0.058 | – | – |
| N=C(N)NC[C@H]1O[C@@H](OC[C@H]2O[C@@H](n3ccc(=O)[nH]c3=O)[C@H](O)[C@@H]2O)[C@H](O)[C@@H]1O | 25 | – | – |
| CSCC[C@H](NC(=O)N[C@@H](Cc1c[nH]c2ccccc12)C(=O)O)C(=O)N[C@@H](CN(C)C(=O)[C@@H](N)Cc1cccc(O)c1)C(=O)N/C=C1/C[C@@H](O)[C@H](n2ccc(=O)[nH]c2=O)O1 | – | 12.5 (≈ 14.7 µM) | – |
| NC[C@H]1O[C@@H](O[C@@H](Cn2cc(Cc3ccc(COc4ccc(C(=O)c5ccccc5)cc4)cc3)nn2)[C@H]2O[C@@H](n3ccc(=O)[nH]c3=O)[C@H](O)[C@@H]2O)[C@H](O)[C@@H]1O | 8 | – | – |
| NC[C@H]1O[C@@H](O[C@@H](Cc2cn(CCCCCCCCCCOc3ccc(C(=O)c4ccccc4)cc3)nn2)[C@H]2O[C@@H](n3ccc(=O)[nH]c3=O)[C@H](O)[C@@H]2O)[C@H](O)[C@@H]1O | 8 | – | – |
| CO[C@H]1[C@@H](OC)[C@H](n2ccc(=O)[nH]c2=O)O[C@@H]1[C@@H](O[C@@H]1OC(C(=O)NCCSSCCNC(C)=O)=C[C@@H](O)[C@H]1O)C(N)=O | 0.01 | – | – |
| CNC[C@H]1O[C@@H](OC[C@H]2O[C@@H](n3ccc(=O)[nH]c3=O)[C@H](O)[C@@H]2O)[C@H](O)[C@@H]1O | 25 | – | – |
| NC[C@H]1O[C@@H](O[C@@H](Cn2cc(CCCCCCCCCCc3ccccc3)nn2)[C@H]2O[C@@H](n3ccc(=O)[nH]c3=O)[C@H](O)[C@@H]2O)[C@H](O)[C@@H]1O | 8 | – | – |

Reference: ChEMBL document CHEMBL5257035, “Nucleoside Derived Antibiotics to Fight Microbial Drug Resistance: New Utilities for an Established Class of Drugs?” (J Med Chem, 2016)
